Measured values as given in US6583136B1, “Antifungal ethers” (Janssen Pharmacuetica N.V., priority 1999, dated 2003).

Legend:
Aspergillus fumigatus = test: Determination of fungal susceptibility (MIC); format: cell-based; conditions: CYG medium, 5 days at 30° C., growth to 35% of control or less
Description: (§1) A panel of Candida isolates plus single isolates of the dermatophytes Microsporum canis, Trichophyton rubrum and Trichophyton mentagrophytes; Aspergillus fumigatus, and Cryptococcus neoformans were used to evaluate the activity of the test compounds in vitro. Inocula were prepared as broth cultures (yeasts) or as suspensions of fungal material made from agar slope cultures (moulds). The test compounds were pipetted from dimethylsulfoxide stock solution into water to provide a series of 10-fold dilutions. The fungal inocula were suspended in the growth medium CYG (F. C. Odds, Journal of Clinical Microbiology, 29, 2735-2740, 1991) at approximately 50,000 colony-forming units (CFU) per ml and added to the aqueous test drugs. The cultures were set up in the 96 wells of plastic microdilution plates and they were incubated for 2 days at 37° C. (Candida spp.) or for 5 days at 30° C. (other fungi). Growth in the microcultures was measured by their optical density (OD) measured at a wavelength of 405 nm. The OD for cultures with test compounds was calculated as a percentage of the OD for control cultures, i.e. the OD for cultures without test compounds. Inhibition of growth to 35% of control or less was recorded as significant inhibition.
(§2) Minimal inhibitory concentration (MIC; in 10^−6 M) of some of the compounds of formula (I) for Candida glabrata, Candida krusei, Candida parapsilosis, Candida albicans, Candida kefyr, Candida tropicalis, Microsporum canis, Trichophyton rubrum, Trichophyton mentagrophytes, Cryptococcus neoformans and Aspergillus fumigatus are listed in table 3.

Microsporum canis = test: Determination of fungal susceptibility (MIC); format: cell-based; conditions: CYG medium, 5 days at 30° C., growth to 35% of control or less
Description: as §1, §2

Candida tropicalis = test: Determination of fungal susceptibility (MIC); format: cell-based; conditions: CYG medium, 2 days at 37° C., growth to 35% of control or less
Description: as §1, §2

Candida kefyr = test: Determination of fungal susceptibility (MIC); format: cell-based; conditions: CYG medium, 2 days at 37° C., growth to 35% of control or less
Description: as §1, §2

Cryptococcus neoformans = test: Determination of fungal susceptibility (MIC); format: cell-based; conditions: CYG medium, 5 days at 30° C., growth to 35% of control or less
Description: as §1, §2

Trichophyton rubrum = test: Determination of fungal susceptibility (MIC); format: cell-based; conditions: CYG medium, 5 days at 30° C., growth to 35% of control or less
Description: as §1, §2

Candida albicans = test: Determination of fungal susceptibility (MIC); format: cell-based; conditions: CYG medium, 2 days at 37° C., growth to 35% of control or less
Description: as §1, §2

Candida krusei = test: Determination of fungal susceptibility (MIC); format: cell-based; conditions: CYG medium, 2 days at 37° C., growth to 35% of control or less
Description: as §1, §2

Candida glabrata = test: Determination of fungal susceptibility (MIC); format: cell-based; conditions: CYG medium, 2 days at 37° C., growth to 35% of control or less
Description: as §1, §2

[1] = tested on: Trichophyton mentagrophytes; test: Determination of fungal susceptibility (MIC); format: cell-based; conditions: CYG medium, 5 days at 30° C., growth to 35% of control or less
Description: as §1, §2

Candida parapsilosis = test: Determination of fungal susceptibility (MIC); format: cell-based; conditions: CYG medium, 2 days at 37° C., growth to 35% of control or less
Description: as §1, §2

[2] = Water solubility in citric acid/Na2HPO4 buffered water; format: physicochemical; conditions: water buffered with citric acid/Na2HPO4, aqueous buffer, thermodynamic from solid, UV spectroscopy
Description: An excess of compound was added to water buffered with 0.1 M citric acid and 0.2 M Na2HPO4 in a ratio of 61.5/38.5 (pH=4). The mixture was shaken during 1 day at room temperature. The precipitate was filtered off.

MIC values in 10^−6 M (Aspergillus fumigatus) | MIC values in 10^−6 M (Microsporum canis) | MIC values in 10^−6 M (Candida tropicalis) | MIC values in 10^−6 M (Candida kefyr) | MIC values in 10^−6 M (Cryptococcus neoformans) | MIC values in 10^−6 M (Trichophyton rubrum) | MIC values in 10^−6 M (Candida albicans) | MIC values in 10^−6 M (Candida krusei) | MIC values in 10^−6 M (Candida glabrata) | MIC values in 10^−6 M [1] | MIC values in 10^−6 M (Candida parapsilosis) | solubility at 1 day ([2]; pH 3.65, shaken 1 day at room temperature) | solubility at 1 day ([2]; pH 4.05, shaken 1 day at room temperature) | Compound
1 10^−6 M | 1 10^−6 M | 0.1 10^−6 M | <0.01 10^−6 M | 0.1 10^−6 M | 0.1 10^−6 M | <0.01 10^−6 M | 1 10^−6 M | 1 10^−6 M | 1 10^−6 M | <0.01 10^−6 M | > 7090 µg/mL |  | CC(OCC(N)Cc1ccccc1)C(C)n1ncn(-c2ccc(N3CCN(c4ccc(OCC5COC(Cn6cncn6)(c6ccc(F)cc6F)O5)cc4)CC3)cc2)c1=O (stereo not drawn) [Compound 3]
1 10^−6 M | <0.1 10^−6 M | 1 10^−6 M | <0.1 10^−6 M | 1 10^−6 M | 10 10^−6 M | <0.1 10^−6 M | 10 10^−6 M | 10 10^−6 M | 10 10^−6 M | <0.1 10^−6 M |  | > 12000 µg/mL | CCC(COCCN(CC)CC)n1ncn(-c2ccc(N3CCN(c4ccc(OCC5COC(Cn6cncn6)(c6ccc(F)cc6F)O5)cc4)CC3)cc2)c1=O (stereo not drawn) [Compound 5]
